Laboratory results reported in article PMC3184174, “Pharmacological Blockade of TRPM8 Ion Channels Alters Cold and Cold Pain Responses in Mice” (PLoS ONE, 2011).

Tests used:
TRPM8 [1] = target: T1, TRPM8 (Mus musculus, UniProt Q8R4D5); assay: whole-cell voltage clamp of menthol-evoked currents in mTRPM8-transfected HEK293T cells; also Fura-2 calcium imaging; assay type: cell-based
TRPM8 [2] = target: T1, TRPM8; assay: whole-cell voltage clamp (V1/[…] shift with […] menthol) and Fura-2 calcium imaging ([…]) in mTRPM8-transfected HEK293T cells; assay type: cell-based

T1 sequence (Q8R4D5 whole entry): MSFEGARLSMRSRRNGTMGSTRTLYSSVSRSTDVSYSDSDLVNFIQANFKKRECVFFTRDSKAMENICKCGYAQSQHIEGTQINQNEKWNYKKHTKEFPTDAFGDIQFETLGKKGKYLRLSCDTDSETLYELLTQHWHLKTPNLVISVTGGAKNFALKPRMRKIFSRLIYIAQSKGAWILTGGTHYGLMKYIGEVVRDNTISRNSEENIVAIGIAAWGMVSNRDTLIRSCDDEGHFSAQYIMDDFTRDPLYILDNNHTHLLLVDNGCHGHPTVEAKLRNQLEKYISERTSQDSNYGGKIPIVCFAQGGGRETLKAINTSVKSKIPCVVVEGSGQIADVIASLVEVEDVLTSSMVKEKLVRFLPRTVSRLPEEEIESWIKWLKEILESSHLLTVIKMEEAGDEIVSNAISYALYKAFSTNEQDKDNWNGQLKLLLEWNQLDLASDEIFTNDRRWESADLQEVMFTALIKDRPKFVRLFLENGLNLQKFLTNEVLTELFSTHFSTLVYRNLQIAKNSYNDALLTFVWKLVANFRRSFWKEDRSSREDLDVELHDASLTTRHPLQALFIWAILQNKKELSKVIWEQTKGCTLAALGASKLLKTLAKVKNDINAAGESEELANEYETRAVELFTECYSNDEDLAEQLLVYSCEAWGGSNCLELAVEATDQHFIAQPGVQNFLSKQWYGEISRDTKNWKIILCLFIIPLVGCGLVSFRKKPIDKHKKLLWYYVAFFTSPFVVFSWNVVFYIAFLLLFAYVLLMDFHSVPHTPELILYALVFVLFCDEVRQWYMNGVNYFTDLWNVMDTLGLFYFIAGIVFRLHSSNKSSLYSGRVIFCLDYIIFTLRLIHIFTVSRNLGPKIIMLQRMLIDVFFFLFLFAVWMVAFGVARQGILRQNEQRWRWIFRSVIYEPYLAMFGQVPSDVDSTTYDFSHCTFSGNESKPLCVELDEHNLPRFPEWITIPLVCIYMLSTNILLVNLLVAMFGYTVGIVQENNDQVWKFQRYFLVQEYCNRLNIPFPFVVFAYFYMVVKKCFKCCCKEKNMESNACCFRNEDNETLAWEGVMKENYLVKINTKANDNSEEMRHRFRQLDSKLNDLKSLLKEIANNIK

| IC50 (TRPM8 [1]) [nM] | SMILES | V1/2 shift with 1 mM menthol (TRPM8 [2]) [mV] |
| --- | --- | --- |
| 0.4 | COc1cc(CN(CCN)C(=O)OC(C)c2ccccc2)ccc1OCc1ccccc1 (centres unmarked) [PBMC, 1-phenylethyl-4-(benzyloxy)-3-methoxybenzyl(2-aminoethyl)carbamate] |  |
|  | CC1CCC(C(C)C)C(O)C1 (centres unmarked) [menthol] | 79.1±21.1 |
